Structures are written as SMILES.

The subject of experiment [1] is rabbit normal intraocular pressure. The experiment in a line: Intraocular pressure reducing action (Test Example 2). The format is in vivo, Japanese white rabbit. To be noted: Oryctolagus cuniculus, topical; 3 mM aqueous solution, 50 μl to the left eye; measured after 2, 4 and 6 hours; read-out: intraocular pressure reducing degree (max ΔIOP / intraocular pressure value immediately before administration × 100). The method, then:
A Japanese white rabbit having a body weight of about 2 kg was placed in a positioner and naturalized for one week before the experiment. An opthalmologic local anesthesant (Benoxil) was administered to both eyes, and then intraocular pressure was measured by using a tonometer (Classic 30, Solan). A 3 mM aqueous solution of a test compound was administered in a volume of 50 μl to the left eye, and the right eye was not treated (control eye). The intraocular pressure values were measured for the left and right eyes immediately before, and 2, 4 and 6 hours after the administration of the aqueous solution of the test compound, and the difference of the measured values for the left and right eyes was considered an intraocular pressure reduction value of the test medicament at each measurement time. The largest difference of the values for the left and right eyes among the measured values at the measurement times (after 2, 4 and 6 hours) was considered the maximum intraocular pressure reduction value (max ΔIOP) of each test medicament. The intraocular pressure reducing degree representing the intraocular pressure reducing action of each test medicament was calculated according to the following formula. Since rabbits show significant daily variation of intraocular pressure, daily variation is added when change of intraocular pressure is measured over time, and the intraocular pressure reducing action may be overestimated. Therefore, we used this calculation method of intraocular pressure reduction value in order to minimize the influence of the variation. Intraocular pressure reducing degree (%)=(max ΔIOP/Intraocular pressure value immediately before administration)×100

The next experiment relates to neutrophils. The experiment in a line: Neutrophil migration inhibitory action, Boyden Chamber, FMLP (Test Example 3). The format is cell-based. To be noted: 0.5 h, human neutrophils, FMLP 1 μM, 37° C., 30 minutes, read-out: IC50, compound concentration providing a migration inhibition ratio of 50%. Here is the method: Neutrophils were isolated from 50 to 100 ml of peripheral blood collected from healthy human donors by the method described in Test Example 1 to obtain a cell suspension (8×10^6/ml). Subsequently, solutions of a test compound at various concentrations were introduced into wells of a 96-well plate in a volume of 125 μl per well, the cell suspension of an equivalent volume was added to it and the plate was preincubated at room temperature for 5 minutes. During the preincubation, FMLP (1 μM, Sigma) solution was added to the lower chamber to set Boyden Chamber, the preincubated cell suspension was added to the upper chamber in a volume of 200 μl per well, and the cells were allowed to migrate at 37° C. under 5% carbon dioxide for 30 minutes. The filter after the migration was collected, and the non-migrated cells adhered to the surface that faced the upper chamber were carefully wiped off. Then, the migrated cells on the back surface were stained with DifQuick dye solution (International Reagents), washed with water and dried, and then absorbance was measured at 595 nm. The inhibition ratio against migration (%) of a test compound was calculated by using the following equation: Migration inhibition ratio(%)=(1−Absorbance of the group with addition of test compound/Absorbance of the group without addition of test compound)×100
Further, the migration inhibitory ratio was calculated with changing the test compound concentration, and a compound concentration providing an inhibition ratio of 50% was obtained as IC50.

For experiment [2], the system named is rabbit intraocular pressure. Put plainly: Rabbit intraocular pressure reduction enhancing action, combination use (Test Example 6-1). In kind it is in vivo, Japanese white rabbit. To be noted: 50 μL, difference of left and right eyes, 2, 4 and 6 hours. The method, then: However, the effect is not limited to the 19-1 compound, and the ophthalmic solution concentration of the 19-1 compound is not limited to those used in this test example. Moreover, as for the test compound used for combination use, similar effect can be obtained also with the compounds of the present invention represented with the example numbers mentioned in Test Example 2.
As a test compound, the 19-1 compound was dissolved in physiological saline, and the solution was neutralized by addition of sodium hydroxide (pH 7.0 to 8.0) to prepare a 0.01 weight % aqueous solution (19-1 compound aqueous solution). As the drugs for combination use, isopropyl unoprostone (trade name: Rescula, Santen Pharmaceutical) was used as a prostaglandin-related drug, and brinzolamide hydrochloride (trade name: Azopt, Alcon Japan) was used as […], as the marketed formulations as they were.
A Japanese white rabbit having a body weight of about 2 kg was placed in a positioner and naturalized for one week before the experiment. An opthalmologic local anesthesant (Benoxil) was administered to both eyes, and then intraocular pressure before instillation was measured by using a tonometer (Classic 30, Solan). A test aqueous solution or the drug for combination use was administered to the left eye, and the right eye was not treated (control eye). The test groups consisted of (1) control group, (2) group instilled only with the 19-1 compound aqueous solution (single drug group 1), (3) group instilled only with the drug for combination use (single drug group 2), and (4) group instilled with the drug for combination use and the 19-1 compound aqueous solution (combination use group), and six rabbits were used for each group. As for the rabbits of these groups, 50 μL of physiological saline was first instilled to the control group, single drug group 1, and single drug group 2, and the drug for combination use was first instilled in the same volume to the combination use group. […] The intraocular pressure thereafter was measured for each group 2, 4 and 6 hours after the second administration of the test compound, and the difference of the measured values for the left and right eyes at each measurement time was considered an intraocular pressure reduction value of each group. The largest difference of the intraocular pressure values for the left and right eyes among those of the measured values of the measurement times was considered the maximum intraocular pressure reduction value (max ΔIOP) of each drug group.

With `N[C@H]1CCN(S(=O)(=O)c2cccc3cncc(Cl)c23)C1` [Example 19-1, (S)-3-Amino-1-(4-chloro-5-isoquinolinesulfonyl)pyrrolidine], the inhibition in vivo at 3000 µM in experiment [1] was at least 20%. In the experiment on neutrophils, the IC50 was in the range of 10 to 40 µM. The “Max ΔIOP (maximum intraocular pressure reduction value), Table 2” value in experiment [2] (0.01 weight % 19-1 compound aqueous solution and/or brinzolamide hydrochloride (Azopt)) is recorded as 4.3 mmHg. Also, the “Max ΔIOP (maximum intraocular pressure reduction value), Table 3” value in experiment [2] (0.01 weight % 19-1 compound aqueous solution and/or isopropyl unoprostone (Rescula)) is listed as 4.3 mmHg.

Source of the values: patent US7618984B2, “Sulfonamide compound” (Asahi Kasei Pharma Corporation, priority 2005, dated 2009).
